One assay has as its target T1, PfPKG (Plasmodium falciparum, UniProt Q8I719).
T1 construct: plasmids (pTrcHisC) encoding full-length PfPKG and PfPKG T618Q with N-terminal His tags; His tag (N); made in house; host or cells: E. coli Rosetta2(DE3)
The assay is described as follows: Microfluidic fluorescent shift assay of cGMP-dependent protein kinase activity. The class given is biochemical. As to conditions: read-out: Enzyme inhibition IC50, PKG.

The subject of assay [1] is P. falciparum 3D7. Description: SYBR green I growth assay, wild-type parasites. The class given is cell-based, Plasmodium falciparum. The following applies: for EC5048/EC5096 ratio: Table 1.
The next assay addresses CDPK1 (Plasmodium falciparum, UniProt P62344). Description: biochemical. The class given is biochemical. The following applies: read-out: Enzyme inhibition IC50, CDPK1.
Another assay concerns the target T2, PfPKG T618Q (Plasmodium falciparum, UniProt Q8I719, T618Q).
T2 construct: plasmids (pTrcHisC) encoding full-length PfPKG and PfPKG T618Q with N-terminal His tags; His tag (N); made in house; host or cells: E. coli Rosetta2(DE3)
The assay is described as follows: biochemical. The format is biochemical. The following applies: for IC50: read-out: Enzyme inhibition IC50, PKG T618Q.

Assay [2] deals with P. falciparum 3D7. Description: Microscopic examination of Giemsa-stained smears (stage of action). The following applies: for Stage of action (before or after DNA synthesis): Table S1, ring-stage parasites, 10x EC50 for 48 h; for Stage of action: ring stage parasites treated with 10 times the 96-h EC50 for 48 h.
The next assay deals with 3D7 PKG T618Q. Description: microbe, parasite or virus in culture. The format is cell-based, Plasmodium falciparum. As to conditions: for 3D7 PKG T618Q/3D7 EC50 ratio / EC50: Table 2; for EC50: SYBR green I, 96 h, single experiment, or mean (SD) of duplicate assays, read-out: Parasite inhibition EC50, 3D7 PKG T618Q; for Ratio 3D7 PKG T618Q/3D7: Table S2.
The mark [3] stands for this setting: Table S1, single experiment with duplicate samples, or mean of triplicate experiments (SD), read-out: EC50 48 hours.
Setting [4] is: Table S1, single experiment with duplicate samples, or mean of triplicate experiments (SD), read-out: EC50 96 hours.
The mark [5] stands for this setting: SYBR green I, 48 h incubation, mean of three independent experiments (SD), read-out: EC50 after treatment for 48 h.
Where [6] appears, read: SYBR green I, 96 h incubation, mean of three independent experiments (SD), read-out: EC50 after treatment for 96 h.
Setting [7] is: Table 2, SYBR green I, 96 h, single experiment, or mean (SD) of duplicate assays, read-out: Parasite inhibition EC50, 3D7.

Each structure is given as a SMILES string. Where two headings read alike, the source gives them in different places. A value given as a limit tells only on which side of the number the result lay.

In general, IC50 refers to the point on the concentration scale where inhibition reaches its midpoint. By EC50 is commonly meant the concentration needed to bring the measured effect to its halfway point. Broadly, the EC90 is the point of the concentration-response curve where the effect stands at 90%. The low end stands for greater potency, the high end for weaker potency.

Chain of CDPK1 (P62344 whole entry): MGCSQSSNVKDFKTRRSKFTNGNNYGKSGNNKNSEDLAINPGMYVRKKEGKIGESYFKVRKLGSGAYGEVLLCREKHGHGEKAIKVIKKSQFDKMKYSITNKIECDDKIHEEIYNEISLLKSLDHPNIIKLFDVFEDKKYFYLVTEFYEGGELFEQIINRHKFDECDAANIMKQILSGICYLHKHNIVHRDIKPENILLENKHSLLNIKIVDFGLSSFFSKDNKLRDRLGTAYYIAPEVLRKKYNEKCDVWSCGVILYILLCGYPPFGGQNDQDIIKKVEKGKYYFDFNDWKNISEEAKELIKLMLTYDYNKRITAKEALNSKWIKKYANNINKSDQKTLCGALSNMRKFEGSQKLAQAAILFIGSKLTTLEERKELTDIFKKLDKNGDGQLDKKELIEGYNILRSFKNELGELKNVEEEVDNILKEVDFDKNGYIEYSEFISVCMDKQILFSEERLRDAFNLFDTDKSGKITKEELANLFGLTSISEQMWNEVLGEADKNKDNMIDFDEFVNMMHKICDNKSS
T2 sequence (Q8I719 whole entry T618Q): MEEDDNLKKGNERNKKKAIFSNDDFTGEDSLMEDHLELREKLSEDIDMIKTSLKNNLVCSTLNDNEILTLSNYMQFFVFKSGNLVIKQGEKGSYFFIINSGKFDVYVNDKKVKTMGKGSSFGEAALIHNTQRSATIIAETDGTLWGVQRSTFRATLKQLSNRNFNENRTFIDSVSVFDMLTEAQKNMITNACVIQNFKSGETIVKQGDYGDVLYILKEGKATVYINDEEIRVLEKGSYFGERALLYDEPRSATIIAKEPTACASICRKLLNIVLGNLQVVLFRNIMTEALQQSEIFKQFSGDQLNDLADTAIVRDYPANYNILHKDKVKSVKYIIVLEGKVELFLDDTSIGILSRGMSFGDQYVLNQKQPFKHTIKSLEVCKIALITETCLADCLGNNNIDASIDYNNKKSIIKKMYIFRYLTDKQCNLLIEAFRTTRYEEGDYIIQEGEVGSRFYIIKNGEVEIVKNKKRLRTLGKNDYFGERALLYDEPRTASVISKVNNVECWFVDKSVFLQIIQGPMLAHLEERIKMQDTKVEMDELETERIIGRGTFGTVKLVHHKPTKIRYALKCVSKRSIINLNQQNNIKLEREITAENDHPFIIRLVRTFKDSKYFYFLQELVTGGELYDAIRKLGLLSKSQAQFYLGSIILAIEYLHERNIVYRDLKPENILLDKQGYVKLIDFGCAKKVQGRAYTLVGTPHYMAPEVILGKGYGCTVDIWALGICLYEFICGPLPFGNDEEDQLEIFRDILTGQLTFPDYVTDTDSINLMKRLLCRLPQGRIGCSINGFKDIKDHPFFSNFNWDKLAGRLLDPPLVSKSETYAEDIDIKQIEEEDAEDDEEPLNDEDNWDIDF

For the compound `CC(C)CCNc1ncc(-c2cnc3ccc(NC4CCNCC4)nn23)cn1` [Compound 29], the figures for the IC50 at PfPKG (Table S2), at CDPK1 (Table S2) and on PfPKG T618Q (Table S2) were 93 nM, 18 nM and 0.88 µM, respectively. Besides, the “ratio EC5048:EC5096” value with P. falciparum 3D7 [1] (Table S1) worked out at 5.4. Moreover, the EC50 was found to be 3.46 µM in the assay with P. falciparum 3D7 [1] (setting [3]) and 0.64 µM with P. falciparum 3D7 [1] (setting [4]). In addition, on PfPKG T618Q (Table S2), the “Selectivity PKG T618Q/PKG” value is recorded as 10.
As for `CC(C)CCNc1ncc(-c2cnc3ccc(NC4CCN(C)C4)nn23)cn1` (stereo not drawn) [Compound 31], the IC50 on PfPKG (Table S2) turned out to be 287 nM; on CDPK1 (Table S2) it was 93 nM; at PfPKG T618Q (Table S2) it was 5.95 µM. Besides, the EC50 in the assay on P. falciparum 3D7 [1] (setting [5]) turned out to be 1.66 µM; in the assay with P. falciparum 3D7 [1] (setting [6]) it was 0.238 µM; in the assay on P. falciparum 3D7 [1] (setting [3]), 1.66 µM; in the assay on P. falciparum 3D7 [1] (setting [4]), 0.24 µM. The EC5048/EC5096 ratio in the assay on P. falciparum 3D7 [1] is reported as 7.0. The “ratio EC5048:EC5096” value with P. falciparum 3D7 [1] (Table S1) turned out to be 7.0. For the same compound, in the assay on P. falciparum 3D7 [2], the “Stage of action (before or after DNA synthesis)” value is “late schizont”. The Stage of action entry in the assay with P. falciparum 3D7 [2] is reported as “Late schizont”. For the same compound, on PfPKG T618Q (Table S2), the “Selectivity PKG T618Q/PKG” value stood at 21.
Take `Fc1cccnc1Nc1ncc(-c2cnc3ccc(NC4CCNCC4)nn23)cn1` [Compound 32]: the IC50 on PfPKG (Table S2) came to 7 nM; on CDPK1 (Table S2) it was 10 nM; on PfPKG T618Q (Table S2), 6.16 µM. Further, in the assay with P. falciparum 3D7 [1] (Table S1), the “ratio EC5048:EC5096” value was 16.6. Also, the concentration for a half-maximal effect (EC50) was determined as 1.79 µM in the assay on P. falciparum 3D7 [1] (setting [3]) and 0.11 µM in the assay on P. falciparum 3D7 [1] (setting [4]). The “Selectivity PKG T618Q/PKG” value on PfPKG T618Q (Table S2) came out at 931.
On to `CN(C)C1CCN(c2ccc3ncc(-c4cnc(Nc5ncccc5F)nc4)n3n2)C1` (stereo not drawn) [Compound 35], for which the values for the IC50 on PfPKG (Table S2), on CDPK1 (Table S2) and on PfPKG T618Q (Table S2) were 50 nM, 17 nM and 528 µM, respectively. Besides, the results for the EC50 in the assay on P. falciparum 3D7 [1] (setting [5]), in the assay on P. falciparum 3D7 [1] (setting [6]) and in the assay with P. falciparum 3D7 [1] (setting [4]) were greater than 1000 µM, 0.809 µM and 0.81 µM, respectively. Moreover, in the assay on P. falciparum 3D7 [1], the EC5048/EC5096 ratio is on record as >1,000. Besides, the “Stage of action (before or after DNA synthesis)” value with P. falciparum 3D7 [2] is reported as “late schizont”. The Stage of action entry in the assay with P. falciparum 3D7 [2] was “Late schizont”. The “Selectivity PKG T618Q/PKG” value at PfPKG T618Q (Table S2) came to 10653.
On to `CN1CCC(CNc2ccc3ncc(-c4cnc(Nc5ncccc5F)nc4)n3n2)CC1` [Compound 38], for which the “3D7 PKG T618Q/3D7 EC50 ratio” value with 3D7 PKG T618Q amounted to 11.8. Also, the EC50 in the assay on 3D7 PKG T618Q was 859 nM; in the assay on P. falciparum 3D7 [1] (setting [5]), greater than 1000 µM; in the assay with P. falciparum 3D7 [1] (setting [6]), 0.05 µM; with P. falciparum 3D7 [1] (setting [7]), 0.073 µM. The “Ratio 3D7 PKG T618Q/3D7” value in the assay with 3D7 PKG T618Q amounted to 12. Further, the IC50 on PfPKG came out at 4 nM; on CDPK1 (Table 2), 8 nM; on PfPKG T618Q (Table 2, ATP at Km 90 μM), 43.5 µM. Besides, the EC5048/EC5096 ratio in the assay on P. falciparum 3D7 [1] is >1,000. Further, in the assay on P. falciparum 3D7 [2], the “Stage of action (before or after DNA synthesis)” value is reported as “late schizont”. For the same compound, the Stage of action result with P. falciparum 3D7 [2] is “Late schizont”. The “Selectivity PKG T618Q/PKG” value at PfPKG T618Q (Table S2) amounted to 12187.
`CNc1ccc2ncc(-c3ccc(NCCC(C)C)nc3)n2n1` [Compound 42]: in the assay on 3D7 PKG T618Q, the “3D7 PKG T618Q/3D7 EC50 ratio” value is given as 1.5, the EC50 is 1230 nM and the “Ratio 3D7 PKG T618Q/3D7” value worked out at 1. The EC50 with P. falciparum 3D7 [1] (setting [7]) came out at 0.836 µM. The IC50 at CDPK1 (Table 2) worked out at 81 nM.
As for `CC(C)CNc1ncc(-c2cnc3ccc(NC4CCN(C)CC4)nn23)cn1` [Compound 44], in the assay on 3D7 PKG T618Q, the “3D7 PKG T618Q/3D7 EC50 ratio” value is on record as 2.0, the EC50 stood at 477 nM and the “Ratio 3D7 PKG T618Q/3D7” value turned out to be 2. In the assay on P. falciparum 3D7 [1] (3D7 parasites), this compound returned an EC90 of 650 nM. Also, the EC50 in the assay on P. falciparum 3D7 [1] (setting [7]) worked out at 0.236 µM. For the same compound, the half-maximal inhibitory concentration (IC50) at CDPK1 (Table 2) was determined as 65 nM.

Source of the values: publication PMC4775997, “Imidazopyridazine Inhibitors of Plasmodium falciparum Calcium-Dependent Protein Kinase 1 Also Target Cyclic GMP-Dependent Protein Kinase and Heat Shock Protein 90 To Kill the Parasite at Different Stages of Intracellular Development” (Antimicrobial Agents and Chemotherapy, 2016).
